Measured values published in patent publication US20230382894A1, “CCR4 ANTAGONISTS” (CHEMOCENTRYX, INC., priority 2022, published 2023).

Biological target: T1, CCR4 (Homo sapiens, UniProt P51679)
T1 construct: CEM Cells Endogenous Express CCR4; endogenous in cells; host or cells: CEM cells
T1 sequence (P51679 1-360): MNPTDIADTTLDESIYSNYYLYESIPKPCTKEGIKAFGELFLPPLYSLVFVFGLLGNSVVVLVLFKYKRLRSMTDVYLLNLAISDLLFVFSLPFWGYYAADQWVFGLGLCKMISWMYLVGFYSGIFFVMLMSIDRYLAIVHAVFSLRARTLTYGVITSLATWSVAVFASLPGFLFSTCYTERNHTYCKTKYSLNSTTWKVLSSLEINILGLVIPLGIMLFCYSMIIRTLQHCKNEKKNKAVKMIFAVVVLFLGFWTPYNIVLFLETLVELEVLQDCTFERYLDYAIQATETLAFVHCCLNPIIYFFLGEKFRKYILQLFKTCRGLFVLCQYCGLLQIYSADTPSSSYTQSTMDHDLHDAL
Assay: CEM cell chemotaxis (migration) assay to CCL22 (MDC) in 100% Fetal Bovine Serum (FBS)
Type: cell-based
Settings: CEM cells in 100% FBS with 1% HEPEs; recombinant human CCL22 0.1 nM; 37° C. 60 minutes
Description: CEM Cells Endogenous Express CCR4
A chemotaxis assay can be used to determine the efficacy of potential receptor antagonists at blocking the migration mediated through chemokine receptors, such as CCR4. This assay is routinely performed using the ChemoTX® microchamber system with a 5 μm pore-sized polycarbonate membrane.
FBS: CEM Cells are collected by centrifugation at 400×g at room temperature, then suspended at 5 million/ml in 100% Fetal Bovine Serum (FBS) with 1% HEPEs. The compound being tested is serially diluted from a maximum final concentration of 10 μM (or an equivalent volume of its solvent (DMSO)) and is then added to the cell/buffer mixture. Separately, recombinant human CCL22 (MDC) at its EC50 concentration (0.1 nM) is placed in the lower wells of the ChemoTX® plate. The 5-μm (pore size) polycarbonate membrane was placed onto the plate, and 20 μL of the cell/compound mixture is transferred onto each well of the membrane. The plates are incubated at 37° C. for 60 minutes, after which the polycarbonate membranes are removed and 5 μl of the DNA-intercalating dye CyQUANT (Invitrogen, Carlsbad, CA) is added to the lower wells. The amount of fluorescence, corresponding to the number of migrated cells, is measured using a Spectrafluor Plus plate reader (TECAN, San Jose, CA).

IC50 [nM]	SMILES
< 100	C[C@@H](Nc1nc(N2CCN(C(=O)[C@H]3CCC(=O)N3)CC2)nc(N)c1Cl)c1ccc(Cl)cc1Cl [Example 1.084]
< 100	C[C@@H](Nc1nc(N2CCN(C(=O)[C@H]3CCC(=O)N3)CC2)ncc1F)c1ccc(F)cc1Cl [Example 1.085]
< 100	C[C@@H](Nc1nc(N2CCN(C(=O)[C@H]3CCC(=O)N3)CC2)ncc1F)c1ccc(Cl)cc1F [Example 1.086]
< 100	C[C@H]1CC[C@H](C(=O)N[C@H]2CCN(c3ncc(Cl)c(N[C@H](C)c4ccc(Cl)cc4Cl)n3)C[C@@H]2F)N1 [Example 1.087]
100 to 1000	Cc1cc(Cl)ccc1[C@@H](C)Nc1nc(N2CCN(C(=O)[C@H]3CCC(=O)N3)CC2)ncc1Cl [Example 1.088]
100 to 1000	Cc1cc(Cl)ccc1[C@@H](C)Nc1nc(N2CCN(C(=O)[C@H]3CCC(=O)N3)CC2)ncc1F [Example 1.089]
< 100	C[C@@H](Nc1nc(N2CC[C@H](NC(=O)[C@H]3CCCN3)[C@H](O)C2)ncc1F)c1ccc(Cl)cc1Cl [Example 1.090]
> 1000	C[C@@H](Nc1nc(N2CC[C@H](NC(=O)[C@H]3CCC(=O)N3)[C@H](O)C2)ncc1F)c1ccc(Cl)cc1Cl [Example 1.091]
100 to 1000	C[C@@H](Nc1cc(C(F)(F)F)nc(N2CCN(C(=O)[C@H]3CCC(=O)N3)CC2)n1)c1ccc(Cl)cc1Cl [Example 1.092]
100 to 1000	C[C@@H](Nc1nc(N2CC[C@H](NC(=O)[C@H]3CCC(=O)N3)[C@@H](O)C2)ncc1Cl)c1ccc(Cl)cc1Cl [Example 1.093]
< 100	C[C@@H](Nc1nc(N2CCN(C(=O)[C@H]3CCCN3)CC2)ncc1N)c1ccc(Cl)cc1Cl [Example 1.094]
< 100	C[C@@H](Nc1nc(N2CCN(C(=O)[C@H]3CCC(=O)N3)CC2)ncc1N)c1ccc(Cl)cc1Cl [Example 1.095]
< 100	COc1cnc(N2CCN(C(=O)[C@H]3CN(C)C(=O)N3)CC2)nc1N[C@H](C)c1ccc(Cl)cc1Cl [Example 1.096]
< 100	Cc1nc(N2CCN(C(=O)[C@H]3CN(C)C(=O)N3)CC2)nc(N[C@H](C)c2ccc(Cl)cc2Cl)c1Cl [Example 1.097]
100 to 1000	C[C@@H](Nc1nc(N2CCN(C(=O)[C@H]3CCC(=O)N3)CC2)ncc1C1CC1)c1ccc(Cl)cc1Cl [Example 1.098]
100 to 1000	C[C@@H](Nc1nc(N2CCN(C(=O)[C@H]3CCC(=O)N3)CC2)ncc1OCC(F)(F)F)c1ccc(Cl)cc1Cl [Example 1.099]
> 1000	C[C@@H](Nc1nc(N2CC[C@H](NC(=O)[C@H]3CCC(=O)N3)[C@@H](O)C2)ncc1F)c1ccc(Cl)cc1Cl [Example 1.100]
< 100	COCc1cnc(N2CCN(C(=O)[C@H]3CCCN3)CC2)nc1N[C@H](C)c1ccc(Cl)cc1Cl [Example 1.101]
< 100	COCc1cnc(N2CCN(C(=O)[C@H]3CCC(=O)N3)CC2)nc1N[C@H](C)c1ccc(Cl)cc1Cl [Example 1.102]

IC50 [nM]	SMILES
< 100	C[C@@H](Nc1nc(N2CCN(C(=O)[C@H]3CN(C)C(=O)N3)CC2)ncc1F)c1ccc(Cl)cc1Cl [Example 1.103]
< 100	C[C@@H]1CN(c2ncc(Cl)c(N[C@H](C)c3ccc(Cl)cc3Cl)n2)CCN1C(=O)[C@H]1CN(C)C(=O)N1 [Example 1.104]
< 100	Cc1nc(N2CCN(C(=O)[C@H]3CCC(=O)N3)[C@H](C)C2)nc(N[C@H](C)c2ccc(Cl)cc2Cl)c1Cl [Example 1.105]
100 to 1000	C[C@@H](Nc1nc(N2CC[C@H](NC(=O)[C@H]3CCC(=O)N3)[C@@H](F)C2)ncc1Cl)c1ccc(Cl)cc1Cl [Example 1.106]
< 100	C[C@@H](Nc1nc(N2CC[C@H](NC(=O)[C@H]3CCCN3)[C@@H](O)C2)ncc1F)c1ccc(Cl)cc1Cl [Example 1.107]
< 100	C[C@@H](Nc1nc(N2CCN(C(=O)[C@H]3CCCN3)CC2)ncc1OCC(F)(F)F)c1ccc(Cl)cc1Cl [Example 1.108]
< 100	C[C@@H](Nc1nc(N2CCN(C(=O)[C@H]3CCC(=O)N3)[C@H](CO)C2)ncc1Cl)c1ccc(Cl)cc1Cl [Example 1.109]
< 100	C[C@@H](Nc1nc(N2CCN(C(=O)[C@H]3CCC(=O)N3)[C@@H](CO)C2)ncc1Cl)c1ccc(Cl)cc1Cl [Example 1.111]
< 100	C[C@@H]1CN(c2ncc(Cl)c(N[C@H](C)c3ccc(Cl)cc3Cl)n2)CCN1C(=O)[C@H]1CCC(=O)N1 [Example 1.112]
< 100	C[C@@H](Nc1nc(N2CCN(C(=O)[C@H]3CCCN3)CC2)ncc1C1CC1)c1ccc(Cl)cc1Cl [Example 1.114]
< 100	C[C@@H](Nc1ccnc(N2CCN(C(=O)[C@H]3CCCN3)CC2)n1)c1ccc(Cl)cc1Cl [Example 1.115]
< 100	C[C@@H](Nc1ccnc(N2CCN(C(=O)[C@H]3CCC(=O)N3)CC2)n1)c1ccc(Cl)cc1Cl [Example 1.116]
< 100	C[C@@H](Nc1nc(N2CCN(C(=O)[C@H]3CCC(=O)N3)CC2)ncc1F)c1ccc(Cl)cc1Cl [Example 1.117]
< 100	C[C@@H](Nc1nc(N2CC[C@@H](NC(=O)[C@H]3CCCN3)[C@H](O)C2)ncc1OC(F)F)c1ccc(Cl)cc1Cl [Example 1.118]
< 100	C[C@H]1CC[C@H](C(=O)N[C@H]2CCN(c3ncc(OC(F)F)c(N[C@H](C)c4ccc(Cl)cc4Cl)n3)C[C@@H]2O)N1 [Example 1.119]
< 100	C[C@@H](Nc1nc(N2CC[C@H](NC(=O)[C@H]3CCCN3)[C@H](O)C2)ncc1OC(F)F)c1ccc(Cl)cc1Cl [Example 1.120]
< 100	COc1cnc(N2CCN(C(=O)C34CC(CN3)C4)CC2)nc1N[C@H](C)c1ccc(Cl)cc1Cl [Example 1.121]
< 100	C[C@@H](Nc1nc(N2CCN(C(=O)[C@H]3COC(=O)N3)CC2)ncc1Cl)c1ccc(Cl)cc1Cl [Example 1.122]
< 100	C[C@@H](Nc1nc(N2CC[C@H](NC(=O)[C@H]3CCC(C)(C)N3)[C@@H](O)C2)ncc1Cl)c1ccc(Cl)cc1Cl [Example 1.123]

IC50 [nM]	SMILES
< 100	C[C@@H](Nc1nc(N2CC[C@H](NC(=O)[C@H]3CCCCN3)[C@@H](O)C2)ncc1Cl)c1ccc(Cl)cc1Cl [Example 1.124]
100 to 1000	C[C@@H](Nc1nc(N2CC[C@H](NC(=O)[C@H]3COCCN3)[C@@H](O)C2)ncc1Cl)c1ccc(Cl)cc1Cl [Example 1.125]
100 to 1000	C[C@@H](Nc1nc(N2CCN(C(=O)C(N)(CO)CCl)CC2)ncc1Cl)c1ccc(Cl)cc1Cl (some centres unmarked) [Example 1.126]
< 100	C[C@@H](Nc1nc(N2CCC(C3CCCN(CCC(N)=O)C3)CC2)ncc1Cl)c1ccc(Cl)cc1Cl (some centres unmarked) [Example 1.127]
100 to 1000	C[C@@H](Nc1nc(N2CCN(C(=O)[C@@H]3COCCN3)CC2)ncc1Cl)c1ccc(Cl)cc1Cl [Example 1.128]
< 100	C[C@@H](Nc1nc(N2CCN(C(=O)[C@H]3CNCC(=O)N3)CC2)ncc1Cl)c1ccc(Cl)cc1Cl [Example 1.129]
100 to 1000	C[C@@H](Nc1nc(N2CCC(NC(=O)[C@H]3C[C@H](F)CN3)CC2)ncc1Cl)c1ccc(Cl)cc1Cl [Example 1.137]
100 to 1000	C[C@@H](Nc1nc(N2CCN(C(=O)[C@H]3CCCN3C(N)=O)CC2)ncc1Cl)c1ccc(Cl)cc1Cl [Example 1.138]
< 100	C[C@@H](Nc1nc(N2CCN(C(=O)[C@H]3CCCN3Cc3nnn[nH]3)CC2)ncc1Cl)c1ccc(Cl)cc1Cl [Example 1.139]
< 100	C[C@@H](Nc1nc(N2CCN(C(=O)[C@H]3C[C@@H](F)CN3)CC2)ncc1Cl)c1ccc(Cl)cc1Cl [Example 1.140]
> 1000	C[C@@H](Nc1nc(N2CCC(N(CCC(=O)O)C(=O)[C@H]3CCCN3)CC2)ncc1Cl)c1ccc(Cl)cc1Cl [Example 1.141]
< 100	C[C@@H](Nc1nc(N2CCN(C(=O)[C@H]3C[C@H](F)CN3)CC2)ncc1Cl)c1ccc(Cl)cc1Cl [Example 1.142]
< 100	C[C@@H](Nc1nc(N2CCN(C(=O)[C@H]3CCN(C)C3)CC2)ncc1Cl)c1ccc(Cl)cc1Cl [Example 1.143]
100 to 1000	C[C@@H](Nc1nc(N2CCN(C(=O)[C@@H]3CCC(=O)N3)CC2)ncc1Cl)c1ccc(Cl)cc1Cl [Example 1.144]
< 100	C[C@@H](Nc1nc(N2CCN(C(=O)[C@@H]3CNCCO3)CC2)ncc1Cl)c1ccc(Cl)cc1Cl [Example 1.145]
100 to 1000	C[C@@H](Nc1nc(N2CCN(C(=O)[C@H]3CC(F)(F)CN3)CC2)ncc1Cl)c1ccc(Cl)cc1Cl [Example 1.146]
< 100	C[C@@H](Nc1nc(N2CCN(C(=O)C3CNC(=O)C3)CC2)ncc1Cl)c1ccc(Cl)cc1Cl (some centres unmarked) [Example 1.147]
100 to 1000	C[C@@H](Nc1nc(N2CCN(C(=O)[C@H]3CCN(C)C3)CC2)ncc1C(C)(C)O)c1ccc(Cl)cc1Cl [Example 1.154]
